Columns and labels:
[1] = mammalian tissues; cited from earlier work
[2] = tested on: rheumatoid arthritis patients; assay: Double-blind clinical trial of 10-deazaaminopterin versus methotrexate in rheumatoid arthritis: toxicity evaluation; format: in vivo, human; conditions: for Toxicity: Dizziness / Toxicity: Gastrointestinal / Toxicity: Leukopenia / Toxicity: Rash: n = 7 per arm, 18 week trial
Method: The double-blind clinical trail of 10-deazaaminopterin versus methotrexate in rheumatoid arthritis was conducted at Universidad Peruana Cayetano Heredia, Lima, Peru. In order to detect 30% differences in either direction for both -efficacy and toxicity a sample size of 20 was used. The trial was conducted according to the following protocol.
The null hypotheses to be investigated included the following
Randomization was performed before the study began; an equal number of patients in each arm of the protocol was secured. Codes were made available to the investigator in sealed envelopes at the beginning of the trial; they were allowed to be opened by the investigator, only if felt to be mandatory for patient management. Patients received a three week supply of either 10-deazaaminopterin or methotrexate. […] Initially the patients received three capsules/week (or 7.5 mg). The capsules were taken at 12 hour intervals over a 24 hour period (8 a.m.-8 p.m. -8 a.m. the following day).
A data base which included a complete history, physical and laboratory exams was completed (Visit 0 or eligibility visit). […] If the patient was felt to be eligible, he/she was entered into the trial the following week (Visit 1) at which time disease activity was assessed and a functional test completed. Patients returned to the clinic every three weeks at which time joint counts were performed, side effects monitored and laboratory studies obtained. An assessment of response was done at week nine (Visit 3). At week 18 (Visit 6) or before (if the patient decides to be removed from the trial) the patient would have a complete exit evaluation, similar to the one performed on visit 1.
Joint counts for pain/tenderness in 60 diarthrodial joints and for swelling in 58 diarthrodial joints Laboratory tests included: CBC, with platelets and differential, Creatinine, SGOT and Alkaline phosphatase. […] 5 ml of sera were secured at entry and at study completion and stored at -20° C. for further studies.
Adverse effects were determined by interviewing the patient; each new symptom developing since the previous visit were recorded as to the date or onset, date of cessation, and whether it was felt to be related or unrelated to the study drug(s).
Minor itching and skin rashes could be handled with antihistaminics or topical steroids; a drop in the WBC ([…]) or in the platelets (<100,000/mm^3), or an increase in the liver enzymes ×2 normal), or an increase in the baseline creatinine (×2 normal) would prompt holding the drug for one week; if the values improved, patients may be restarted on the drug; if no improvement occurs in 3 weeks, the patient should be withdrawn. […] If no improvement occurs in 3 weeks, the patient should be withdrawn from the trial. If a patient develops a serious intercurrent infectious process, or requires elective or emergency surgery during the study period, the patient should be withdrawn from the trial.

[3] = tested on: cancer patients; conditions: anticancer clinical trials, Cancer Treatment Reports 71:95, 1987; cited from earlier work
[4] = tested on: dihydrofolate reductase; conditions: 10-deazaaminopterin compared with methotrexate; cited from earlier work
[5] = tested on: patients receiving methotrexate; conditions: cited from earlier work

| SMILES | Metabolism to poly-gamma-glutamates [1] | Toxicity in humans versus methotrexate (in words) ([2]; clinical trials (not further specified), compared with methotrexate) | Frequency of toxicity (in words) ([2]; human, in vivo) | Toxicity: Dizziness [2] | Toxicity: Gastrointestinal [2] | Toxicity: Leukopenia [2] | Toxicity: Rash [2] | Bone marrow depression [3] | Nausea and vomiting [3] | Inhibition of dihydrofolate reductase (in words) [4] | Patients who experienced an adverse drug reaction during treatment ([5]; human, in vivo) | Patients with toxic manifestations (nausea, stomatitis, elevated liver function tests, cytopenias, pulmonary toxicity) ([5]; patients receiving methotrexate) | Toxicity of methotrexate (in words) ([5]; use in rheumatoid arthritis) |
| --- | --- | --- | --- | --- | --- | --- | --- | --- | --- | --- | --- | --- | --- |
| Nc1nc(N)c2nc(CCc3ccc(C(=O)NC(CCC(=O)O)C(=O)O)cc3)cnc2n1 (stereo not shown) [10-deazaaminopterin] | also metabolized to its poly-gamma-glutamates in mammalian tissues | remarkably less toxic to humans | low frequency of toxicity | 0 | 2 | 0 | 1 | minimal | mild | inhibit this enzyme to approximately the same magnitude |  |  |  |
| CN(Cc1cnc2nc(N)nc(N)c2n1)c1ccc(C(=O)N[C@@H](CCC(=O)O)C(=O)O)cc1 [methotrexate, reference compound] | metabolism of methotrexate to its poly-gamma-glutamates |  |  | 1 | 2 | 1 | 0 |  |  | inhibit this enzyme to approximately the same magnitude | 93 % of patients | 30-60 % of patients | very toxic drug |

From patent US5030634A (priority 1990, dated 1991)
